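96-well plates; 48 h exposure; 5 concentrations. Endpoints by linear interpolation between flanking doses. Not reached: highest tested concentration assigned. GI50 = concentration required for 50% inhibition of growth.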 Activity calls are given as the source filed them. Cut-off read from the data, not from the text of the source: active = GI50 up to about 1.1 µM and inactive = higher.
How the values were obtained:
Experiment in all cases: growth of human tumour cells (NCI), 48 h
[1] = system: KM12
[2] = system: HCT-15
[3] = system: NCI-H522
[4] = system: SF-539
[5] = system: A498
[6] = system: SN12C
[7] = system: ACHN
[8] = system: 786-0
[9] = system: UACC-257
[10] = system: SK-MEL-28
[11] = system: MDA-MB-231
[12] = system: RXF 393
[13] = system: SW-620
[14] = system: EKVX
[15] = system: UO-31
[16] = system: HCC 2998
[17] = system: SF-268
[18] = system: HT-29
[19] = system: HL-60

Row | Compound | GI50 [1] | GI50 [2] | GI50 [3] | GI50 [4] | GI50 [5] | GI50 [6] | GI50 [7] | GI50 [8] | GI50 [9] | GI50 [10] | GI50 [11] | GI50 [12] | GI50 [13] | GI50 [14] | GI50 [15] | GI50 [16] | GI50 [17] | GI50 [18] | GI50 [19]
1 | O=C(C[n+]1ccc2ccccc2c1)c1ccc2ccc3ccccc3c2c1 | 1.33 µM (inactive) | 5.07 µM | 6.38 µM (inactive) | 0.483 µM (active) | 4.94 µM (inactive) | 1.91 µM (inactive) | 2.22 µM (inactive) | 1.67 µM (inactive) | 2.04 µM (inactive) | 2.12 µM (inactive) | 1.28 µM (inactive) | 5.02 µM (inactive) | 1.31 µM (inactive) | 6.27 µM (inactive) | 4.69 µM (inactive) | 1.66 µM (inactive) | 4.52 µM (inactive) | 1.03 µM (active) | 
2 | OCC1OC(NC(=S)NCSCCC(F)(F)C(F)(F)C(F)(F)C(F)(F)C(F)(F)C(F)(F)F)C(O)C(O)C1O (stereo not given) | 38.7 µM (inactive) | 72.6 µM |  | 16.6 µM (inactive) | 1.77 µM (inactive) | 60 µM (inactive) | 35.2 µM (inactive) | 45.8 µM (inactive) | 46.6 µM (inactive) | 5.77 µM (inactive) | > 100 µM (inactive) | 35.2 µM (inactive) | 39.4 µM (inactive) |  | > 100 µM (inactive) | 43.8 µM (inactive) | 15.2 µM (inactive) | 34.2 µM (inactive) | 49.4 µM (inactive)
3 | C=C[C@@H]1C[C@]2(C(=O)OC)Cc3nc4ccccc4nc3CC(C(=O)OC)=C2O1 | 75.5 µM (inactive) | 57.1 µM | 64.6 µM (inactive) | > 100 µM (inactive) | > 100 µM (inactive) | > 100 µM (inactive) | > 100 µM (inactive) | > 100 µM (inactive) | 76.7 µM (inactive) | 53.8 µM (inactive) | 92.9 µM (inactive) | > 100 µM (inactive) | 58.5 µM (inactive) | > 100 µM (inactive) |  |  | > 100 µM (inactive) | > 100 µM (inactive) | 80.5 µM (inactive)
4 | COc1ccc(N2C=Nn3c(nc4sc5c(c4c3=O)CCCC5)C2)cc1 | > 100 µM (inactive) | > 100 µM | 16.3 µM (inactive) |  | 14 µM (inactive) | > 100 µM (inactive) | 12.1 µM (inactive) | 5.77 µM (inactive) | 56.1 µM (inactive) | > 100 µM (inactive) | 6.37 µM (inactive) | 15.4 µM (inactive) | > 100 µM (inactive) | 73.6 µM (inactive) | > 100 µM (inactive) | 47.8 µM (inactive) | 19.2 µM (inactive) | > 100 µM (inactive) | 
5 | S=C(c1c[nH]c2ccccc12)N1CCOCC1 | > 100 µM (inactive) | > 100 µM |  | > 100 µM (inactive) | > 100 µM (inactive) | > 100 µM (inactive) | > 100 µM (inactive) | > 100 µM (inactive) | > 100 µM (inactive) | > 100 µM (inactive) | > 100 µM (inactive) | > 100 µM (inactive) | > 100 µM (inactive) | 43.1 µM (inactive) | 45.8 µM (inactive) |  | 14.1 µM (inactive) | > 100 µM (inactive) | > 100 µM (inactive)
6 | O=C(Nc1nn(C(=O)c2ccc(Cl)cc2)c(=O)s1)c1ccc(Cl)cc1 | > 100 µM (inactive) | > 100 µM | > 100 µM (inactive) |  | > 100 µM (inactive) | > 100 µM (inactive) | > 100 µM (inactive) | > 100 µM (inactive) | > 100 µM (inactive) | > 100 µM (inactive) | > 100 µM (inactive) | 46.9 µM (inactive) | > 100 µM (inactive) | 94.8 µM (inactive) | > 100 µM (inactive) | > 100 µM (inactive) | > 100 µM (inactive) | > 100 µM (inactive) | > 100 µM (inactive)
7 | COCCN1C(=O)C2c3[nH]c4ccccc4c3C3CCC(C(C)(C)C)CC3C2C1=O (stereo not given) | 19.2 µM (inactive) | 16.9 µM | 18 µM (inactive) | 19.1 µM (inactive) |  | 17.1 µM (inactive) | > 10 µM (inactive) | 17.2 µM (inactive) | 16.7 µM (inactive) | 17.5 µM (inactive) | 17.3 µM (inactive) | 20.4 µM (inactive) | 17.3 µM (inactive) | 17.9 µM (inactive) | 13.9 µM (inactive) | 19.3 µM (inactive) | 19.2 µM (inactive) | 13.2 µM (inactive) | 16 µM (inactive)
8 | O=CNc1ncn[nH]1 | > 100 µM (inactive) | > 100 µM | > 100 µM (inactive) | > 100 µM (inactive) | > 100 µM (inactive) | > 100 µM (inactive) | > 100 µM (inactive) | > 100 µM (inactive) | > 100 µM (inactive) | > 100 µM (inactive) | > 100 µM (inactive) | > 100 µM (inactive) | > 100 µM (inactive) | > 100 µM (inactive) | > 100 µM (inactive) |  | > 100 µM (inactive) | > 100 µM (inactive) | > 100 µM (inactive)
9 | CS(=O)(=O)c1ccc(/C=N/NC(N)=S)cc1 | > 100 µM (inactive) | > 100 µM | > 100 µM (inactive) |  | > 100 µM (inactive) | > 100 µM (inactive) | > 100 µM (inactive) | > 100 µM (inactive) | > 100 µM (inactive) | > 100 µM (inactive) | > 100 µM (inactive) | > 100 µM (inactive) | > 100 µM (inactive) | > 100 µM (inactive) | > 100 µM (inactive) | > 100 µM (inactive) | > 100 µM (inactive) | > 100 µM (inactive) | > 100 µM (inactive)
10 | CC(=O)OCC1OC(N2C(=O)/C(=C\c3ccc(Cl)cc3)C(N)=Nc3ccccc32)C(OC(C)=O)C(OC(C)=O)C1OC(C)=O (stereo not given) | 14.9 µM (inactive) | 23 µM |  | 10.1 µM (inactive) | 44.6 µM (inactive) | 29.2 µM (inactive) | 20.2 µM (inactive) | 17.7 µM (inactive) | 23.4 µM (inactive) | 26.1 µM (inactive) | 19.3 µM (inactive) | 4.34 µM (inactive) | 23.2 µM (inactive) | 29.2 µM (inactive) | 20.7 µM (inactive) | 16.1 µM (inactive) | 18.2 µM (inactive) | 25.7 µM (inactive) | 33 µM (inactive)
11 | Nc1ncnc2c1ncn2[C@@H]1O[C@H](C(=O)O)[C@@H](O)[C@H]1O [5'-CARBOXY ADENOSINE] | > 100 µM (inactive) | > 100 µM | > 100 µM (inactive) | > 100 µM (inactive) | > 100 µM (inactive) | > 100 µM (inactive) | > 100 µM (inactive) | > 100 µM (inactive) | > 100 µM (inactive) | > 100 µM (inactive) | > 100 µM (inactive) | > 100 µM (inactive) | > 100 µM (inactive) | > 100 µM (inactive) | > 100 µM (inactive) |  | > 100 µM (inactive) | > 100 µM (inactive) | > 100 µM (inactive)
12 | On1c(-c2ccccc2)nc2ccccc2c1=S | 3.18 µM (inactive) | 1.36 µM |  | 4.32 µM (inactive) | 42.2 µM (inactive) | 7.13 µM (inactive) | 5.21 µM (inactive) | 3.95 µM (inactive) | 54.3 µM (inactive) | 7.41 µM (inactive) | 70.3 µM (inactive) | 25.5 µM (inactive) | 6.82 µM (inactive) | 10.3 µM (inactive) | 3.39 µM (inactive) | 2.4 µM (inactive) | 3.47 µM (inactive) | 6.64 µM (inactive) | 2.4 µM (inactive)
13 | CCN(CC)c1ccc2c(c1)OC(=O)C(c1nnc(-c3ccc([N+](=O)[O-])cc3)o1)C2 (stereo not given) | > 100 µM (inactive) | > 100 µM | > 100 µM (inactive) |  | > 100 µM (inactive) |  | > 100 µM (inactive) | > 100 µM (inactive) | > 100 µM (inactive) | > 100 µM (inactive) | > 100 µM (inactive) | > 100 µM (inactive) | > 100 µM (inactive) | 10.2 µM (inactive) | > 100 µM (inactive) | > 100 µM (inactive) | 90.4 µM (inactive) | > 100 µM (inactive) | 84.5 µM (inactive)
14 | O=[N+]([O-])c1cccc(Cl)c1Oc1ccc(S(=O)(=O)N/C(=N\O)Nc2ccc(Cl)cc2)cc1 | 15.9 µM (inactive) | 15 µM | 4.74 µM (inactive) | 14.6 µM (inactive) | 14.2 µM (inactive) | 12.3 µM (inactive) | 14.1 µM (inactive) | 12.9 µM (inactive) | 11.1 µM (inactive) | 15.1 µM (inactive) | 17.7 µM (inactive) | 13.8 µM (inactive) | 15.1 µM (inactive) | 12.2 µM (inactive) | 9.1 µM (inactive) | 10.8 µM (inactive) | 9.1 µM (inactive) | 17.1 µM (inactive) | 
15 | O=C1OCC2OC(=O)c3cc(O)c(O)c(O)c3-c3c(O)c(O)c(O)c4c3C(=O)OC(C2OC(=O)c2cc(O)c(O)c(O)c2-c2c1cc(O)c(O)c2O)C1OC(=O)c2c-4c(O)c(O)c(O)c2[C@@H]1C(O)C(O)C(O)C(O)CO (stereo not given in full) | 22 µM (inactive) | 16.1 µM | 18.8 µM (inactive) |  | 26.4 µM (inactive) | 16 µM (inactive) | 16.5 µM (inactive) | 17.4 µM (inactive) | 19.4 µM (inactive) | 49.1 µM (inactive) | 12.7 µM (inactive) | 19.3 µM (inactive) | 19.5 µM (inactive) | 19.8 µM (inactive) | 17.8 µM (inactive) | 21.6 µM (inactive) | 21.5 µM (inactive) | 14.4 µM (inactive) | 17 µM (inactive)

Reference: ChEMBL document CHEMBL1201862, “PubChem BioAssay data set” (2004)
